Test results published in patent US9351818B2, “Process for the synchronization of ovulation for timed breeding without heat detection” (priority 2003, dated 2016).

What was measured:
mature postpartum sows = experiment: Intravulvar deslorelin at estrus detection with AI in mature postpartum sows (Example 2); assay type: in vivo, swine; settings: 50 μg deslorelin acetate intravulvar at first estrus detection, then AI again if in estrus the next day
Description: Sows were assigned randomly in blocks of two to either control or to be injected intravulvar with 50 mcg of deslorelin in SAIB at the time of estrus detection for sows first detected in estrus in the a.m. and 12 hours later for those first detected in estrus in the p.m. Treated animals were bred AI upon detected estrus and again 24 hours later if still in estrus. Controls received a saline injection on first detected estrus behavior estrus detection and were bred according to the farm's normal procedures.

postpartum sows = experiment: Single timed deslorelin injection 96 hours post-weaning with single timed insemination, no estrus detection (Example 3); assay type: in vivo, swine; settings: 50 mcg in SAIB at 96 hours post-weaning; single insemination 28+/-2 hours later
Description: Approximately 170 postpartum sows were randomly divided into two equal groups comprised of controls and treated. Following weaning, the controls were detected for estrus and bred following the normal standard operating procedures for the farms on which they resided. The treated sows received a 50 mcg dose of deslorelin in SAIB at 96 hours post-weaning and were bred with a single insemination 28+/−2 hours later with no regard to estrus detection. The sows were examined for pregnancy by ultrasound at 21 days and slaughtered around 28 days post breeding. The entire reproductive tract was removed and corpora lutea and embryos were counted.

CCNC(=O)[C@@H]1CCCN1C(=O)[C@H](CCCN=C(N)N)NC(=O)[C@H](CC(C)C)NC(=O)[C@@H](Cc1c[nH]c2ccccc12)NC(=O)[C@H](Cc1ccc(O)cc1)NC(=O)[C@H](CO)NC(=O)[C@H](Cc1c[nH]c2ccccc12)NC(=O)[C@H](Cc1cnc[nH]1)NC(=O)[C@@H]1CCC(=O)N1 [Deslorelin, deslorelin]
Pregnancy Rate (mature postpartum sows): 91%
Embryo Survival (postpartum sows): 64%
